Laboratory results: US4011322A, “Benzimidazole derivatives and process for the production thereof” (Schering Aktiengesellschaft, priority 1974, dated 1977)

System: stripped skin of volunteers (vasoconstriction / hyperemia)
Assay: Vasoconstriction test on stripped skin of volunteers (topical ointment)
Assay type: in vivo, human (volunteers)
Method: The anti-inflammatory effectiveness of the novel benzimidazole derivatives can be determined in the conventional vasoconstriction test, as follows:
On the backs of volunteers for the experiment, the stratum corneum was removed by the application and tearing off of an adhesive strip, applied 20 times at the same spot, thus producing a pronounced hyperemia. Within the stripped area, respectively 50 mg. of ointment was applied to marked areas having a size of 4 cm^2, this ointment containing respectively 0.1, 0.01 or 0.001%, respectively, of the compound to be tested or of the reference substance in a water-oil base. […]
To determine the vasoconstriction, which is a representative syndrome of topical anti-inflammatory activity, the color value of the untreated skin and the treated stripped skin is measured and compared with the color value of the normal skin, with the color value of the normal skin being assigned the value 100 and the color value of the untreated stripped skin being assigned the value 0. Minor, medium, and high-grade vasoconstriction are evaluated with values between 0 and 100.
The results of such tests employing compounds of this invention (Compounds III and IV) and the prior art compounds Clemizole (I) and Flucortolone (II) are shown in Table I below.

[1] = 0.001% in ointment, observation time 1 hour
[2] = 0.001% in ointment, observation time 4 hours
[3] = 0.001% in ointment, observation time 8 hours
[4] = 0.01% in ointment, observation time 1 hour
[5] = 0.01% in ointment, observation time 4 hours
[6] = 0.01% in ointment, observation time 8 hours
[7] = 0.1% in ointment, observation time 1 hour
[8] = 0.1% in ointment, observation time 4 hours
[9] = 0.1% in ointment, observation time 8 hours

SMILES	vasoconstriction (color value; normal skin = 100, untreated stripped skin = 0) [1]	vasoconstriction (color value; normal skin = 100, untreated stripped skin = 0) [2]	vasoconstriction (color value; normal skin = 100, untreated stripped skin = 0) [3]	vasoconstriction (color value; normal skin = 100, untreated stripped skin = 0) [4]	vasoconstriction (color value; normal skin = 100, untreated stripped skin = 0) [5]	vasoconstriction (color value; normal skin = 100, untreated stripped skin = 0) [6]	vasoconstriction (color value; normal skin = 100, untreated stripped skin = 0) [7]	vasoconstriction (color value; normal skin = 100, untreated stripped skin = 0) [8]	vasoconstriction (color value; normal skin = 100, untreated stripped skin = 0) [9]
C[C@@H]1C[C@H]2[C@@H]3C[C@H](F)C4=CC(=O)C=C[C@]4(C)[C@H]3[C@@H](O)C[C@]2(C)[C@H]1C(=O)CO [II, 6 α-Fluoro-11β,21-dihydroxy-16α-methyl-1,4-pregnadiene-3,20-dione]	20	50	60	15	65	85	35	75	85
Clc1ccc(Cn2c(CN3CCCC3)nc3ccccc32)cc1 [I, 1-4'Chlorobenzyl-2-pyrrolidinomethyl-benzimidazole]				18	31	33	18	35	45
CCN1CCN(Cc2nc3ccccc3n2Cc2ccccc2O)CC1 [III, 2-(4-Ethyl-1-piperazinyl)-methyl-1-(2-hydroxybenzyl)-benzimidazole]	15	15	20	35	55	55	45	80	85
CCN1CCN(Cc2nc3ccccc3n2Cc2ccc(Cl)cc2)CC1 [IV, 2-(4-Ethyl-1-piperazinyl)-methyl-1-(4-chlorobenzyl)-benzimidazole]	25	65	95	30	85	100			
